Measured values: patent publication US20100310504A1, “METHODS FOR TREATING FIBROSIS BY MODULATING CELLULAR SENESCENCE” (priority 2007, published 2010)
Entries after “also recorded” stand apart in the source; their conditions may differ. Blank lines part the entries; values can stand above or below the molecule they belong to.

Tests used:
[1] = system: primary human activated HSCs; assay: Senescence induction in cultured primary human activated HSCs; assay type: cell-based; conditions: etoposide 100 μM, within several days of treatment
liver = conditions: mouse, in vivo
senescent IMR-90 cells = assay: In vitro killing assay of growing and senescent IMR-90 cells by YT cells (NK cell line); assay type: cell-based, human; conditions: range of target:effector cell ratios
Method: Tissue culture. Human IMR-90 foetal lung fibroblasts (ATCC) and primary human hepatic myofibroblasts (activated HSCs) (Dominion Pharmakine, Spain) were grown in standard conditions (Narita et al., 2003). Senescence was induced by prolonged culturing, etoposide (100 μM, Sigma, USA) treatment, or infection of IMR-90 cells with oncogenic rasV12 as described (Narita et al., 2003). For in vitro cytotoxicity assays, growing or senescent cells were plated in 6-well plates at 50,000 cells per well. 5×10^5 YT cells (from DSMZ, Germany) were subsequently added to target cells. The plates were incubated under normal conditions for 12 hours, and then NK cell cytotoxicity was determined using crystal violet staining of remaining adherent cells or followed with a Zeiss AxioObserver microscope equipped with 37° C. incubator hood and 6.3% CO2 cover.
To test if a Perforin mediated pathway is involved in senescent cell killing in vitro, the in vitro killing assays of growing and senescent IMR-90 cells were used (the assay is described at Krizhanovsky, V. et al., “Senescence of Activated Stellate Cells Limits Liver Fibrosis,” Cell, 134, 657-667 (Aug. 22, 2008), which is hereby incorporated by reference). Growing and senescent IMR-90 cells were incubated with different amounts of YT cells (NK cell line) in presence or absence of granule exocytosis pathway inhibitor Concanamycin A (CMA). […]

[2] = system: senescent activated HSCs in fibrotic livers; assay: Fibrosis reversion and senescent cell clearance in CCl4 treated mice with modified NK cell function; assay type: in vivo, mouse
Method: Animals. […] GFAP-tTA mice were obtained from the Jackson Laboratory.
Sections were counterstained with Eosin.
Immunoblotting. Liver tissue was lysed in Laemmli buffer using a tissue homogenizer. Equal amounts of protein were separated on 12% SDS-polyacrylamide gels and transferred to PVDF membranes. Detection was performed using anti-αSMA (DakoCytomation, Denmark), anti-13Actin (AC-15, Sigma, USA).
Expression array analysis and quantitative RT-PCR. […] Affymetrix Human Genome U133 Plus 2.0Array were used to identify genes expressed in HSC.
To determine whether NK cells can target senescent cells in vivo and their impact on liver fibrosis, modulating NK cell function was tested for how it would influence the frequency of senescent activated HSCs and fibrosis resolution in livers obtained from mice following a six week course of CCl4 or at various times after ceasing treatment. To deplete NK cells mice were treated with neutralizing antibodies [anti-AsialoGM1 (Radaeva et al., 2006; Xue et al., 2007)] during the period following CCl4 withdrawal. Conversely, to enhance the immune response, we treated mice with polyinosinic-polycytidylic acid (polyI:C), which induces interferon-γ and enhances NK cell activity in the liver (Radaeva et al., 2006).

[3] = wild type mice after six week CCl4, treated 10 or 20 days following CCl4 withdrawal, compared to saline controls

Molecule: COc1cc([C@@H]2c3cc4c(cc3[C@@H](O[C@@H]3O[C@@H]5CO[C@@H](C)O[C@H]5[C@H](O)[C@H]3O)[C@H]3COC(=O)[C@H]23)OCO4)cc(OC)c1O [etoposide]
senescence of activated HSCs (proliferation stop, SA-β-gal activity, heterochromatic foci) [1]: undergo senescence

accumulation of senescent cells in livers of treated mice (liver): accumulated
Molecule: 3,5-diethoxycarbonyl-1,4-dihydrocollidine [DDC]

Molecule: C/C=C/[C@H]1O[C@@](O)([C@@H](C)[C@H](O)[C@H](C)[C@H]2OC(=O)/C(OC)=C/C(C)=C/[C@@H](C)[C@@H](O)[C@@H](CC)[C@@H](O)[C@H](C)C/C(C)=C/C=C/[C@@H]2OC)C[C@@H](O[C@H]2C[C@@H](O)[C@H](OC(N)=O)[C@@H](C)O2)[C@@H]1C [CMA, Concanamycin A]
preferential killing of senescent cells by NK cells (YT) in presence of inhibitor (senescent IMR-90 cells): significantly inhibited

Molecule: ClC(Cl)(Cl)Cl [CCl4]
accumulation of senescent cells in livers of treated mice (liver): accumulated in fibrotic livers | increase in Sirius Red-positive area over untreated controls (liver): 3 to 4 fold | liver area Sirius Red-positive (quantitative laser scanning cytometry) (liver): Approximately 2%

Molecule: polyinosinic-polycytidylic acid [polyI:C]
αSMA mRNA and protein levels in fibrotic livers (activated HSC marker) ([2]; quantitative RT-PCR and immunoblot, 10 days treatment after CCl4, compared to saline): decreased | fibrosis / fibrotic tissue (Sirius Red staining) [2, 3]: less fibrotic tissue; also recorded: depleted more efficiently | senescent cells (SA-β-gal positive) in fibrotic liver [2, 3]: fewer senescent cells; also recorded: enhanced clearance of senescent cells
